Measurements published in ChEMBL document CHEMBL3813632, “Thiazolo[3,2-a]benzimidazol-3(2H)-one derivatives: Structure-activity relationships of selective nucleotide pyrophosphatase/phosphodiesterase1 (NPP1) inhibitors” (Bioorg Med Chem, 2016).

Legend:
[1] = Chemical stability of the compound assessed as compound remaining at pH 7.4 at 25 to 37 degC after 8 to 24 hrs by HPLC-MS analysis; type: physicochemical; settings: buffer
[2] = Chemical stability of the compound at pH 9 at 25 degC after 8 hrs by HPLC-MS analysis; type: physicochemical; settings: buffer, pH 9, 8 h
Homo sapiens [3] = organism: Homo sapiens; assay: Selectivity ratio of Ki for human recombinant TNAP to Ki for human recombinant NPP1
[4] = Chemical stability of the compound assessed as compound remaining at pH 9 at 37 degC after 24 hrs by HPLC-MS analysis; type: physicochemical; settings: buffer, read-out: Stability
[5] = Chemical stability of the compound assessed as compound remaining at pH 9 at 37 degC after 8 hrs by HPLC-MS analysis; type: physicochemical; settings: buffer, read-out: Stability
[6] = Chemical stability of the compound assessed as compound remaining at pH 9 at 25 degC after 24 hrs by HPLC-MS analysis; type: physicochemical; settings: buffer, read-out: Stability
Homo sapiens [7] = organism: Homo sapiens; assay: Selectivity ratio of Ki for human recombinant soluble NTPDase3 to Ki for human recombinant NPP1

- Stability [1]: Stable
- Stability [2]: Stable
- Ratio Ki (Homo sapiens [3]): 1000
- remaining at 24 h [4]: 27.4%
- remaining at 8 h [5]: 70.5%
- remaining at 24 h [6]: 52.4%
- Ratio Ki (Homo sapiens [7]): 1000
SMILES: O=c1/c(=C/c2ccc(I)o2)sc2nc3ccccc3n12
